{"source": "paper PMC5386260", "about": "“Acute development of cortical porosity and endosteal naïve bone formation from the daily but not weekly short-term administration of PTH in rabbit” (PLoS ONE, 2017)", "key": {"[1]": {"tested_on": "renal function", "details": "rabbit, in vivo", "procedure": "The serum samples collected for measurement of bone metabolic markers were also subjected to biochemical analysis to examine renal function. Serum blood urea nitrogen (BUN) and creatinine were measured using an autoanalyzer (Hitachi 7180 chemistry analyzer; Hitachi Ltd, Tokyo, Japan). Blood samples in all groups were collected at 0, 6, 24 hours after the administration of TPTD on days 1 and 22. Blood samples in the C, […] and […] groups were also collected at days 3 and 7 after on the 1st and 22nd days of administration. The samples were centrifuged at 1700 x g, at 4°C for 15 minutes in tubes with clot activator and serum was collected in order to measure the concentration of osteocalcin."}, "[2]": {"assay": "Plasma TPTD concentration and pharmacokinetics (Rat PTH IRMA Kit, non-compartmental model)", "format": "in vivo, rabbit", "excerpt": "Seventeen female New Zealand White rabbits (Kbl:NZW) were purchased from Kitayama Labs (Nagano, Japan) and were allowed to acclimatize with free access to water and food for 6 days before use. Throughout the experimental study, the animals were housed individually under a 12-h light/dark cycle with free access to water, but their food intake was restricted to 120g /day (LRC4, standard diet for rabbits; Oriental Yeast, Tokyo, Japan). The animals at 6 months of age were divided into 5 groups and were subcutaneously injected with 20 or 40 μg/kg of TPTD once-daily (D20 group [n = 3] and D40 group [n = 3], 140 or 280 μg/kg of TPTD once-weekly (W140 group [n = 3] and W280 group [n = 4]) for four weeks (Table 1). For the high-dose administration of TPTD, the dosage in once-daily treatment was set at 40 μg/kg/day based on a previous study, while the dosage of once-weekly TPTD treatment was set at 280 μg/kg/week; thus, the cumulative dose of TPTD each week was the same with the two treatment frequencies. In the W140 and W280 groups, saline was administered every day, except for the days on which TPTD was administered. Saline injections were administered to control animals (C group, n = 4) once daily and to each group as a vehicle.\n[…] The samples were centrifuged at 1600 x g, at 4°C for 10 minutes and plasma samples were collected in order to measure the concentration of TPTD. […]\nTeriparatide acetate was synthesized at Asahi Kasei Pharma Corporation (Tokyo, Japan) and was used as a standard substance. The teriparatide acetate concentration in the rabbit plasma was quantified using a Rat PTH IRMA Kit (Immutopics, Inc., San Clemente, CA) according to the manufacturer’s instructions. The pharmacokinetic parameters were calculated using a non-compartmental model (Phoenix WinNonlin; Pharsight, Mountain View, CA)."}}, "data": [{"smiles": "CC[C@H](C)[C@H](NC(=O)[C@H](CCC(=O)O)NC(=O)[C@H](CO)NC(=O)[C@@H](NC(=O)[C@@H](N)CO)C(C)C)C(=O)N[C@@H](CCC(N)=O)C(=O)N[C@@H](CC(C)C)C(=O)N[C@@H](CCSC)C(=O)N[C@@H](Cc1cnc[nH]1)C(=O)N[C@@H](CC(N)=O)C(=O)N[C@@H](CC(C)C)C(=O)NCC(=O)N[C@@H](CCCCN)C(=O)N[C@@H](Cc1cnc[nH]1)C(=O)N[C@@H](CC(C)C)C(=O)N[C@@H](CC(N)=O)C(=O)N[C@@H](CO)C(=O)N[C@@H](CCSC)C(=O)N[C@@H](CCC(=O)O)C(=O)N[C@@H](CCCN=C(N)N)C(=O)N[C@H](C(=O)N[C@@H](CCC(=O)O)C(=O)N[C@@H](Cc1c[nH]c2ccccc12)C(=O)N[C@@H](CC(C)C)C(=O)N[C@@H](CCCN=C(N)N)C(=O)N[C@@H](CCCCN)C(=O)N[C@@H](CCCCN)C(=O)N[C@@H](CC(C)C)C(=O)N[C@@H](CCC(N)=O)C(=O)N[C@@H](CC(=O)O)C(=O)N[C@H](C(=O)N[C@@H](Cc1cnc[nH]1)C(=O)N[C@@H](CC(N)=O)C(=O)N[C@@H](Cc1ccccc1)C(=O)O)C(C)C)C(C)C", "note": "[TPTD, Teriparatide]", "values": [{"measurement": "level of serum blood urea nitrogen (BUN), effect of TPTD", "setting": "[1]", "value": "not significantly affected"}, {"measurement": "level of serum creatinine, effect of TPTD", "setting": "[1]", "value": "not significantly affected"}, {"measurement": "time for plasma TPTD levels to return to the basal levels", "setting": "[2]; all of the dosage regimens", "value": "≤ 3", "unit": "h"}, {"measurement": "plasma TPTD concentration relative to Cmax by 2h", "setting": "[2]; all regimens (D20, D40, W140, W280), 2h post-dose", "value": "less than 40 % of Cmax"}, {"measurement": "level at 5 min", "setting": "[2]; female, New Zealand White (Kbl:NZW), rabbit, plasma, sc, 20 ug/kg, Day 1, 5 min, D20 (20 μg/kg sc once-daily), n=3, IRMA, mean", "value": 7.14, "unit": "ng/mL"}, {"measurement": "level at 0.25 h", "setting": "[2]; female, New Zealand White (Kbl:NZW), rabbit, plasma, sc, 20 ug/kg, Day 1, 15 min, D20 (20 μg/kg sc once-daily), n=3, IRMA, mean", "value": 14.9, "unit": "ng/mL"}, {"measurement": "level at 0.5 h", "setting": "[2]; female, New Zealand White (Kbl:NZW), rabbit, plasma, sc, 20 ug/kg, Day 1, 30 min, D20 (20 μg/kg sc once-daily), n=3, IRMA, mean", "value": 19.8, "unit": "ng/mL"}, {"measurement": "level at 1 h", "setting": "[2]; female, New Zealand White (Kbl:NZW), rabbit, plasma, sc, 20 ug/kg, Day 1, 1 hour, D20 (20 μg/kg sc once-daily), n=3, IRMA, mean", "value": 11.8, "unit": "ng/mL"}, {"measurement": "level at 2 h", "setting": "[2]; female, New Zealand White (Kbl:NZW), rabbit, plasma, sc, 20 ug/kg, Day 1, 2 hour, D20 (20 μg/kg sc once-daily), n=3, IRMA, mean", "value": 1.77, "unit": "ng/mL"}, {"measurement": "level at 5 min", "setting": "[2]; female, New Zealand White (Kbl:NZW), rabbit, plasma, sc, 20 ug/kg, Day 22, 5 min, D20 (20 μg/kg sc once-daily), n=3, IRMA, mean", "value": 7.06, "unit": "ng/mL"}, {"measurement": "level at 0.25 h", "setting": "[2]; female, New Zealand White (Kbl:NZW), rabbit, plasma, sc, 20 ug/kg, Day 22, 15 min, D20 (20 μg/kg sc once-daily), n=3, IRMA, mean", "value": 17, "unit": "ng/mL"}, {"measurement": "level at 0.5 h", "setting": "[2]; female, New Zealand White (Kbl:NZW), rabbit, plasma, sc, 20 ug/kg, Day 22, 30 min, D20 (20 μg/kg sc once-daily), n=3, IRMA, mean", "value": 24.6, "unit": "ng/mL"}, {"measurement": "level at 1 h", "setting": "[2]; female, New Zealand White (Kbl:NZW), rabbit, plasma, sc, 20 ug/kg, Day 22, 1 hour, D20 (20 μg/kg sc once-daily), n=3, IRMA, mean", "value": 20.5, "unit": "ng/mL"}, {"measurement": "level at 2 h", "setting": "[2]; female, New Zealand White (Kbl:NZW), rabbit, plasma, sc, 20 ug/kg, Day 22, 2 hour, D20 (20 μg/kg sc once-daily), n=3, IRMA, mean", "value": 3.8, "unit": "ng/mL"}, {"measurement": "level at 24 h", "setting": "[2]; female, New Zealand White (Kbl:NZW), rabbit, plasma, sc, 20 ug/kg, Day 22, 24 hour, D20 (20 μg/kg sc once-daily), n=3, IRMA, mean", "value": 0.13, "unit": "ng/mL"}, {"measurement": "level at 5 min", "setting": "[2]; female, New Zealand White (Kbl:NZW), rabbit, plasma, sc, 40 ug/kg, Day 1, 5 min, D40 (40 μg/kg sc once-daily), n=3, IRMA, mean", "value": 9.83, "unit": "ng/mL"}, {"measurement": "level at 0.25 h", "setting": "[2]; female, New Zealand White (Kbl:NZW), rabbit, plasma, sc, 40 ug/kg, Day 1, 15 min, D40 (40 μg/kg sc once-daily), n=3, IRMA, mean", "value": 23.6, "unit": "ng/mL"}, {"measurement": "level at 0.5 h", "setting": "[2]; female, New Zealand White (Kbl:NZW), rabbit, plasma, sc, 40 ug/kg, Day 1, 30 min, D40 (40 μg/kg sc once-daily), n=3, IRMA, mean", "value": 34.3, "unit": "ng/mL"}, {"measurement": "level at 1 h", "setting": "[2]; female, New Zealand White (Kbl:NZW), rabbit, plasma, sc, 40 ug/kg, Day 1, 1 hour, D40 (40 μg/kg sc once-daily), n=3, IRMA, mean", "value": 29.9, "unit": "ng/mL"}, {"measurement": "level at 2 h", "setting": "[2]; female, New Zealand White (Kbl:NZW), rabbit, plasma, sc, 40 ug/kg, Day 1, 2 hour, D40 (40 μg/kg sc once-daily), n=3, IRMA, mean", "value": 10.6, "unit": "ng/mL"}, {"measurement": "level at 5 min", "setting": "[2]; female, New Zealand White (Kbl:NZW), rabbit, plasma, sc, 40 ug/kg, Day 22, 5 min, D40 (40 μg/kg sc once-daily), n=3, IRMA, mean", "value": 10.3, "unit": "ng/mL"}, {"measurement": "level at 0.25 h", "setting": "[2]; female, New Zealand White (Kbl:NZW), rabbit, plasma, sc, 40 ug/kg, Day 22, 15 min, D40 (40 μg/kg sc once-daily), n=3, IRMA, mean", "value": 32.7, "unit": "ng/mL"}, {"measurement": "level at 0.5 h", "setting": "[2]; female, New Zealand White (Kbl:NZW), rabbit, plasma, sc, 40 ug/kg, Day 22, 30 min, D40 (40 μg/kg sc once-daily), n=3, IRMA, mean", "value": 54, "unit": "ng/mL"}, {"measurement": "level at 1 h", "setting": "[2]; female, New Zealand White (Kbl:NZW), rabbit, plasma, sc, 40 ug/kg, Day 22, 1 hour, D40 (40 μg/kg sc once-daily), n=3, IRMA, mean", "value": 49.2, "unit": "ng/mL"}, {"measurement": "level at 2 h", "setting": "[2]; female, New Zealand White (Kbl:NZW), rabbit, plasma, sc, 40 ug/kg, Day 22, 2 hour, D40 (40 μg/kg sc once-daily), n=3, IRMA, mean", "value": 14, "unit": "ng/mL"}, {"measurement": "level at 5 min", "setting": "[2]; female, New Zealand White (Kbl:NZW), rabbit, plasma, sc, 140 ug/kg, Day 1, 5 min, W140 (140 μg/kg sc once-weekly), n=3, IRMA, mean", "value": 38, "unit": "ng/mL"}, {"measurement": "level at 0.25 h", "setting": "[2]; female, New Zealand White (Kbl:NZW), rabbit, plasma, sc, 140 ug/kg, Day 1, 15 min, W140 (140 μg/kg sc once-weekly), n=3, IRMA, mean", "value": 85.4, "unit": "ng/mL"}, {"measurement": "level at 0.5 h", "setting": "[2]; female, New Zealand White (Kbl:NZW), rabbit, plasma, sc, 140 ug/kg, Day 1, 30 min, W140 (140 μg/kg sc once-weekly), n=3, IRMA, mean", "value": 132, "unit": "ng/mL"}, {"measurement": "level at 1 h", "setting": "[2]; female, New Zealand White (Kbl:NZW), rabbit, plasma, sc, 140 ug/kg, Day 1, 1 hour, W140 (140 μg/kg sc once-weekly), n=3, IRMA, mean", "value": 121, "unit": "ng/mL"}, {"measurement": "level at 2 h", "setting": "[2]; female, New Zealand White (Kbl:NZW), rabbit, plasma, sc, 140 ug/kg, Day 1, 2 hour, W140 (140 μg/kg sc once-weekly), n=3, IRMA, mean", "value": 50.4, "unit": "ng/mL"}, {"measurement": "level at 5 min", "setting": "[2]; female, New Zealand White (Kbl:NZW), rabbit, plasma, sc, 140 ug/kg, Day 22, 5 min, W140 (140 μg/kg sc once-weekly), n=3, IRMA, mean", "value": 33.5, "unit": "ng/mL"}, {"measurement": "level at 0.25 h", "setting": "[2]; female, New Zealand White (Kbl:NZW), rabbit, plasma, sc, 140 ug/kg, Day 22, 15 min, W140 (140 μg/kg sc once-weekly), n=3, IRMA, mean", "value": 124, "unit": "ng/mL"}, {"measurement": "level at 0.5 h", "setting": "[2]; female, New Zealand White (Kbl:NZW), rabbit, plasma, sc, 140 ug/kg, Day 22, 30 min, W140 (140 μg/kg sc once-weekly), n=3, IRMA, mean", "value": 202, "unit": "ng/mL"}]}]}
